Assay results as given in patent US20100021434A1, “Isolated Oligodendrocyte-Like Cells and Populations Comprising Same for the Treatment of CNS Diseases” (Ramot At Tel Aviv University Ltd., priority 2005, published 2010).

B1: Neurotrophin-3: neurotrophin 3, human polypeptide or mammalian homologue, from PeproTech (protein, UniProt P20783 139-257, looked up)
Neurotrophin-3: YAEHKSHRGEYSVCDSESLWVTDKSSAIDIRGHQVTVLGEIKTGNSPVKQYFYETRCKEARPVKNGCRGIDDKHWNSQCKTSQTYVRALTSENNKLVGWRWIRIDTSCVCALSRKIGRT
modifications: Neurotrophin-3
notes: neurotrophin 3, human polypeptide or mammalian homologue, from PeproTech

Assays:
Type in all cases: cell-based
mouse MSCs [1] = assay: Oligodendrocyte-like differentiation of mouse MSCs, immunostaining (A2B5, O4, MBP); details: for expression of the oligodendrocyte progenitor marker A2B5 (FIGS. 4A-C): MSCs of C57-EGFP mice, NT-3 50 ng/ml, IL-1β 20 ng/ml; for Fraction of A2B5+ cells: mouse MSCs, cytokines added to growth medium
Procedure: (§1) Oligodendrocyte-like Differentiation of mouse MSCs: 3.2*10^3 mMSCs per well from transgenic EGFP+ C57/b1 mice (that have constitutive expression of EGFP in all their cells), were cultured in growth medium (15% FCS, 5% HS, 2 mM L-glutamine, 0.001% β-mercaptoethanol, 10 ng/ml epidermal growth factor, 100 U/ml Penicillin, 100 μg/ml Streptomycin and 12.5 U/ml Nystatin in α-DMEM), and then transferred to mediums containing different cytokines, hormones and growth factors (See table 2 hereinbelow) that play roles in oligodendrocyte lineage differentiation process, to examine the effects of those substances on the cells. The cells were incubated in the differentiation mediums for 48 hours or 6 days, and then were fixed in 4% PFA for 5 minutes in RT and 20 minutes in 4° C. and photographed for morphological changes.
The fixed cells were then blocked in 5% goat serum (GS) stained with mouse anti-A2B5 antibodies (1:200; Chemicon) overnight, 4° C., washed twice in 5% GS, and appropriate goat anti mouse second Cy3 antibody (1:500; Jackson labs) for one hour, RT, in the dark. The cells were then examined for fluorescence and photographed by fluorescence Olympus IX70-S8F2 microscope with fluorescent light source and a U-MNU filter cube (Olympus). In all immuno-staining experiments, a sample was also stained with IInd antibodies only, as control, to detect any non-specific staining.

mouse MSCs [2] = assay: Oligodendrocyte-like differentiation of mouse MSCs, morphology; details: MSCs of C57-EGFP transgenic mice, growth medium plus cytokines, 6 days
Procedure: as §1

mouse MSCs [3] = assay: FACS analysis of differentiated mouse cells (A2B5, O4); details: EGFP mMSCs, IL-1β 20 ng/ml in growth medium, 4 days
Procedure: FIGS. 5A-D are graphs and tables illustrating an analysis of mouse MSCs following differentiation protocol in vitro. MSCs from the bone marrow of transgenic EGFP-expressing transgenic mice (A) were cultured in differentiation medium composed of standard growth medium supplemented by IL-1β (20 ng/ml), or in standard growth medium only (control; B) for 4 days. The cells were then stained by antibodies against oligodendrocyte progenitor marker A2B5, and analyzed by flow cytometry (A2B5 staining seen as black lines). Nonspecific staining by second antibody only was used as control (nonspecific staining seen as red lines), and quantitative measurements were made from the cross points of the two lines. Quantitative measurements (D) were made either on the total population (first row), or on the population with very small-sized events omitted (see gated area in A; second row in D).
FACS analysis of differentiated mouse cells: MSCs were harvested from the tissue culture flasks following […] in differentiation medium (See Table 3, in the Results, #4), alongside undifferentiated MSCs, and centrifuged at 1000×rpm for 10 minutes at room temperature. […] After two washes in flow buffer, the cells were resuspended in 0.5 ml PBS and were studied by a fluorescence activated cell sorter (FACS) Calibur™ using an argon ion laser, adjusted to an excitation wavelength of 488 nm (Becton Dickinson). […]

| Molecule | expression of the oligodendrocyte progenitor marker A2B5 (FIGS. 4A-C) (mouse MSCs [1]; 6 days) | Fraction of A2B5+ cells (mouse MSCs [1]; 48 hours) [%] | Fraction of A2B5+ cells (mouse MSCs [1]; 6 days) [%] | cell morphology (FIGS. 3A-F) (mouse MSCs [2]) | percentage A2B5+ cells (FACS analysis) (mouse MSCs [3]) |
| --- | --- | --- | --- | --- | --- |
| Interleukin-1β: interleukin 1 beta, cytokine from PeproTech added to growth medium | acquiring expression | 1 | 3.8 | did not alter drastically | changes. Low |
| CC1=C(/C=C/C(C)=C/C=C/C(C)=C/C(=O)O)C(C)(C)CCC1 [Retinoic acid, reference compound] | – | 0 | – | – | – |
| B1 | acquiring expression | 1.9 | 2.7 | did not alter drastically | – |
